The assay concerns the target T1, Leukotriene B4 receptor 2 (Homo sapiens, UniProt Q9NPC1).
T1 sequence (Q9NPC1 whole entry): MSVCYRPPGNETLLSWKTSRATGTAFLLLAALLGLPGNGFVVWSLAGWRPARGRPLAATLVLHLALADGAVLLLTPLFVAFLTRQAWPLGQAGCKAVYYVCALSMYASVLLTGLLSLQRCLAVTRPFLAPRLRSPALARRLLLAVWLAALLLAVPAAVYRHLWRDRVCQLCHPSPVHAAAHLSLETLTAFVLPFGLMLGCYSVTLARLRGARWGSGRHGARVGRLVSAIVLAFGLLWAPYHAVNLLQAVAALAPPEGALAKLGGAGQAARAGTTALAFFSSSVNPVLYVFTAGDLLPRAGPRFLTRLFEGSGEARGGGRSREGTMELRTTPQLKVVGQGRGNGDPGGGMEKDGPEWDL

Where “and” joins values, the source holds several entries; their conditions need not be identical. Identical values can stand only once.

The term Ki denotes a dissociation constant, usually derived from enzyme kinetics or from competition with a known ligand. Lower therefore signals a stronger hold on the target. Molecule `CCCCCCCCC(O)/C=C/c1cccc(C)n1` (centres undefined) [CGS 23114] came in with a Ki of 885 nM. This counts as sub-micromolar.
The same measure for `COc1ccc(/C=C/CCCCOc2ccc(Oc3cccc(C(=O)O)c3)cc2CCC(=O)O)cc1` [CGS 23130]: 24 nM and 8 nM.
Then `COc1ccc(/C=C/CCCCOc2ccc(C(=O)c3cccc(C(=O)O)c3)cc2CCC(=O)O)cc1` [(Z)-3-{3-(2-Carboxy-ethyl)-4-[6-(4-methoxy-phenyl)-hex-5-enyloxy]-benzoyl}-benzoic acid], with 35 nM and 15 nM; and `CCc1cc(C(C)=O)c(O)cc1OCCCCC(C)(C)c1nnn[nH]1` [CGS 23167], with 293 nM and 364 nM.

These data come from BindingDB's records for PubMed 1320692 (Ciba-Geigy, 1992).
